Results taken from patent US7956069B2, “Compounds” (AstraZeneca AB, priority 2006, dated 2011).

Columns and labels:
Type in all cases: cell-based
[1] = biological target: T1, hM5 (human Muscarinic receptor subtype 5) (Homo sapiens, UniProt P08912); assay: Human M5 calcium mobilization FLIPR assay; settings: CHO cells expressing hM5, Ca2+ release
T1 construct: expressed in transfected cells; host or cells: CHO cells (Chinese hamster ovary cells, ATCC)
T1 sequence (P08912 1-532): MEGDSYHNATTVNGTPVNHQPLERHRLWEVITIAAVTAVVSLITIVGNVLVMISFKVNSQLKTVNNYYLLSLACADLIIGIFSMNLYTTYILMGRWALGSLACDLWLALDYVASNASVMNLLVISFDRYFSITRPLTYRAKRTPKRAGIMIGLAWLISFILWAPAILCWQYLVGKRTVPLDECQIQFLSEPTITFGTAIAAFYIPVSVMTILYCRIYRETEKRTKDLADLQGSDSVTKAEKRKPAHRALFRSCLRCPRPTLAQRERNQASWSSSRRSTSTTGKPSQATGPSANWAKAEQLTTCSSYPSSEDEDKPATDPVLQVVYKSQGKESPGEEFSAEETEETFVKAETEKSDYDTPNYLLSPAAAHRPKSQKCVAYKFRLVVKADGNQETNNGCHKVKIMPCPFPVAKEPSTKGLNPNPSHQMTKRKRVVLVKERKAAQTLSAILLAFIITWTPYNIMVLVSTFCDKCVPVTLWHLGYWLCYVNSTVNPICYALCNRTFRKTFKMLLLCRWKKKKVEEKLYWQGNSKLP
Procedure: (§1) Biological Evaluation Human M1, Rat M1, Human M3 and Human M5 Calcium Mobilization FLIPR™ Assay
(§2) The compound activity in the present invention (EC50 or IC50) was measured using a 384 plate-based imaging assay that monitors drug induced intracellular Ca^2+ release in whole cells. Activation of hM1 (human Muscarinic receptor subtype 1, gene bank access NM_000738), rM1 (rat Muscarinic receptor subtype 1, gene bank access NM_080773), hM3 (human Muscarinic receptor subtype 3, gene bank access NM_000740NM_000740) and hM5 (human Muscarinic receptor subtype 5, gene bank access NM_0121258), receptors expressed in CHO cells (Chinese hamster ovary cells, ATCC) was quantified in a Molecular Devices FLIPR II™ instrument as an increase in fluorescent signal. Inhibition of hM3 and hM5 by compounds was determined by the decrease in fluorescent signal in response to 20 nM carbachol activation.
(§3) CHO cells were plated in 384-black polylysine coated plate (Costar) at 8000 cells/well/50 μl for 24 hours or 4000 cells/well for 48 hours in a humidified incubator (5% CO2 and 37° C.) in DMEM/F12 medium without selection agent. Prior to the experiment the cell culture medium was removed from the plates by inversion. A loading solution of 30 μl of Hank's balanced salt solution, 10 mM Hepes and 2.5 mM Probenicid at Ph 7.4 (Cat no. 311-520-VL, Wisent) with 2 μM calcium indicator dye (FLUO-3AM, Molecular Probes F14202) was added to each well. Plates were incubated at 37° C. for 60 minutes prior to start the experiment. The incubation was terminated by washing the cells four times in assay buffer, leaving a residual 25 μl buffer per well. Cell plates were then transferred to the FLIPR, ready for compound additions.
(§4) The day of experiment, carbachol and compounds were diluted in three-fold concentration range (10 points serial dilution) for addition by FLIPR instrument. For all calcium assays, a baseline reading was taken for 30 seconds followed by the addition of 12.5 μl (25 μl for hM1 and rM1) of compounds, resulting in a total well volume of 37.5 μl (50 μl for hM1 and rM1). Data were collected every 1.6 seconds for 300 seconds. For hM3 and hM5 an additional 12.5 μl of carbachol (20 nM final) was added at 300 seconds. After this addition of carbachol (producing a final volume of 50 μl), the FLIPR continued to collect data every 2 seconds for 240 seconds. The fluorescence emission was read using filter 1 (emission 520-545 nm) by the FLIPR on board CCD camera.
(§5) Calcium mobilization output data were calculated as the maximal relative fluorescence unit (RFU) minus the minal value for both compound and agonist reading frame (except for hM1 and rM1 using only the maximal RFU). Data were analyzed using sigmoidal fits of a non-linear curve-fitting program (XLfit version 5.0.6 from ID Business Solutions Limited, Guildford, UK). All EC50 and IC50 values are reported as arithmetic means±standard error of mean of ‘n’ independent experiments.

[2] = biological target: T2, hM1 (human Muscarinic receptor subtype 1) (Homo sapiens, UniProt P11229); assay: Human M1 calcium mobilization FLIPR assay; settings: CHO cells expressing hM1, Ca2+ release
T2 construct: expressed in transfected cells; host or cells: CHO cells (Chinese hamster ovary cells, ATCC)
T2 sequence (P11229 1-460): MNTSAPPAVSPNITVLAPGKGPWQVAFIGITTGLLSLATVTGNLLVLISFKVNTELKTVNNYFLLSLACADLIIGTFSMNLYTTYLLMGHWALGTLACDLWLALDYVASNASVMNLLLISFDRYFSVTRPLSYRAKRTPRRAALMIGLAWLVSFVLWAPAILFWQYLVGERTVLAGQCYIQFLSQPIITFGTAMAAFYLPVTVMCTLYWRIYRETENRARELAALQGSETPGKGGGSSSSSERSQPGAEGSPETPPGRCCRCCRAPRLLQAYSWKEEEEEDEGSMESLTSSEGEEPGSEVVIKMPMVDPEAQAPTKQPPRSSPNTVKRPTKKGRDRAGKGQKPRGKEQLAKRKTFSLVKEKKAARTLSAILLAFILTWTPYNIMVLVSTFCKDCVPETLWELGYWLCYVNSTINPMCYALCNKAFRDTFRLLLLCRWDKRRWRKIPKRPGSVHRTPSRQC
Procedure: as §1, §2, §3, §4, §5

[3] = biological target: T3, hM3 (human Muscarinic receptor subtype 3) (Homo sapiens, UniProt P20309); assay: Human M3 calcium mobilization FLIPR assay; settings: CHO cells expressing hM3, Ca2+ release
T3 construct: expressed in transfected cells; host or cells: CHO cells (Chinese hamster ovary cells, ATCC)
Procedure: as §1, §2, §3, §4, §5

T3 sequence (P20309 whole entry): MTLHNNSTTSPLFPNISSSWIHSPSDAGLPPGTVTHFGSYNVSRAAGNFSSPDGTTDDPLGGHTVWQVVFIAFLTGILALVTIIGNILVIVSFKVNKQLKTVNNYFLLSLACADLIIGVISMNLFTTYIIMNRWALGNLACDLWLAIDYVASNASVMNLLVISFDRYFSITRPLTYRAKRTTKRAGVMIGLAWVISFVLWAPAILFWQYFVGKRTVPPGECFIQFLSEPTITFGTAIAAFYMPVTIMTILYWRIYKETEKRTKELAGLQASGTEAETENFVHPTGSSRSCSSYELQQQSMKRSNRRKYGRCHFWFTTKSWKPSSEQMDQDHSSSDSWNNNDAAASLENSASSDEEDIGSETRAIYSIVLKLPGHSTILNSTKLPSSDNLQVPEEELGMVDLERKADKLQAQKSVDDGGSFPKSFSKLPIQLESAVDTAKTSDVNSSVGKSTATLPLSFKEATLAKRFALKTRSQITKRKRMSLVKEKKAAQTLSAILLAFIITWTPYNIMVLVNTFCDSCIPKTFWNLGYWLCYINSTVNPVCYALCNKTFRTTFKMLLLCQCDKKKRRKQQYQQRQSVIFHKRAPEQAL

Row | Compound | EC50 [1] [nM] | EC50 [2] [nM] | EC50 [3] [nM]
1 | Cc1ccccc1C(=O)N1CCC(N2CCC(N3C(=O)C[C@H]4CCCC[C@@H]43)CC2)CC1 | > 40000 | 93 | > 40000
2 | O=C(C1CCCC1)N1CCC(N2CCC(N3C(=O)N[C@@H]4CCCC[C@@H]43)CC2)CC1 |  | 300 | 
3 | CCNC(=O)N1CCC(N2CCC(N3C(=O)N[C@@H]4CCCC[C@H]43)CC2)C1 (mixture of isomers) |  | 1000 | 
4 | CCOC(=O)N1CCC(N2CCC(N3C(=O)N(C(C)C)[C@H]4CCCC[C@@H]43)CC2)CC1 | > 40000 | 1200 | > 40000
5 | O=C(C1CC1(F)F)N1CCC(N2CCC(N3C(=O)N[C@H]4CCCC[C@@H]43)CC2)CC1 (some centres unmarked) |  | 81 | 
6 | CCOC(=O)N1CCC(N2CCC(N3C(=O)C[C@H]4CCCC[C@@H]43)CC2)C1 (single isomer, unassigned) |  | 59 | 
7 | O=C(c1ccccc1)N1CCC(N2CCC(N3C(=O)N[C@@H]4CCCC[C@H]43)CC2)CC1 |  | 600 | 
